Test results from patent US20040191115A1 (priority 2003, published 2004).
“And” between values parts separate entries of the source, which are not always exact repeats. Equal entries are not always repeated. Where two headings read alike, the source gives them in different places.

Tests used:
[1] = test system: bacillus atrophaeus spores; conditions: 2.59 percent H2O2, slow speed, without cartons; for Log Red. (Avg): time 60 min relative to time zero
Method: (§1) Studies were conducted to determine the microbial eradication on mandrels 34 that were subjected to vaporized sterilant introduced at the heaters 40. […] The efficacy of the mandrel sterilization was studied for both the mandrel caps 35 and the mandrel side tubes 37 (see FIG. 3).
(§2) Each of the studies was further carried out using a testing media of bacillus atrophaeus spores for inoculating the mandrels. The mandrels were inoculated by spraying, using an aerating spray bottle having a solution with a concentration of about 7 log bacillus spores. The mandrels were then allowed to air dry. Controls were swabbed using cotton swabs to assure that the mandrels were properly inoculated. Following the machine operating period of the test, the mandrels were swabbed and the bacillus spores transferred to an agar media for incubation of the spores (at 32° C. for 48 hours) and subsequent recovery.
The data was collected by taking swab samples at the mandrel cap 35 (represented by C in the Table) and on the mandrel side tubes 37 (represented by T in the Table).

[2] = test system: bacillus atrophaeus spores; conditions: 2.52 percent H2O2, with cartons; for average count of colony forming units for the time period / log of average count for the time period: mean of samples; for average count of colony forming units for the time period / log of average count for the time period / Log Red. (Avg): normal speed; for Average CFU/mL / Average CFU/mandrel / Log (of Average CFU/mandrel) / Result #1 CFU/mL / Result #2 CFU/mL: normal operating speed
Method: as §1, §2
The data was collected by taking swab samples at the mandrel cap (C) and on the mandrel side tubes (T). The mandrel side tube data is the sum of all of the side tubes.

[3] = time 60 min, swab site T (mandrel side tubes)
[4] = time 0 min, swab site C (mandrel cap)
[5] = time 0 min, swab site T (mandrel side tubes)
[6] = time 10 min, swab site C (mandrel cap)
[7] = time 10 min, swab site T (mandrel side tubes)
[8] = time 20 min, swab site C (mandrel cap)
[9] = time 20 min, swab site T (mandrel side tubes)
[10] = time 30 min, swab site C (mandrel cap)
[11] = time 30 min, swab site T (mandrel side tubes)
[12] = time 40 min, swab site T (mandrel side tubes)

OO [hydrogen peroxide]
Result #2 CFU/mL ([1]; time 60 min, swab site C (mandrel cap)): 8.40E+04 CFU/mL and 9.20E+04 CFU/mL | Average CFU/mL [1, 3]: 1.87E+05 CFU/mL and 1.14E+05 CFU/mL | Average CFU/mandrel [1, 3]: 7.46E+05 CFU/mandrel and 4.56E+05 CFU/mandrel | Log (of Average CFU/mandrel) [1, 3]: 5.87 Log and 5.66 Log | Result 1 CFU/mL [1, 3]: 2.10E+05 CFU/mL and 1.20E+05 CFU/mL | Result #2 CFU/mL [1, 3]: 1.63E+05 CFU/mL and 1.08E+05 CFU/mL | Log Red. (Avg) ([1]; cap): 0.17 Log | Log Red. (Avg) ([1]; side tubes): 0.05 Log | average count of colony forming units for the time period ([2]; time 0 min, cap): 5.09E+05 CFU/mandrel | log of average count for the time period ([2]; time 0 min, cap): 5.71 log | average count of colony forming units for the time period ([2]; time 0 min, side tubes): 7.12E+05 CFU/mandrel | log of average count for the time period ([2]; time 0 min, side tubes): 5.85 log | Average CFU/mL [2, 4]: 1.32E+05 CFU/mL and 1.23E+05 CFU/mL | Average CFU/mandrel [2, 4]: 5.28E+05 CFU/mandrel and 4.90E+05 CFU/mandrel | Log (of Average CFU/mandrel) [2, 4]: 5.72 Log and 5.69 Log | Result #1 CFU/mL [2, 4]: 1.19E+05 CFU/mL and 1.30E+05 CFU/mL | Result #2 CFU/mL [2, 4]: 1.45E+05 CFU/mL and 1.15E+05 CFU/mL | Average CFU/mL [2, 5]: 1.83E+05 CFU/mL and 1.73E+05 CFU/mL | Average CFU/mandrel [2, 5]: 7.32E+05 CFU/mandrel and 6.92E+05 CFU/mandrel | Log (of Average CFU/mandrel) [2, 5]: 5.86 Log and 5.84 Log | Result #1 CFU/mL [2, 5]: 1.39E+05 CFU/mL and 1.71E+05 CFU/mL | Result #2 CFU/mL [2, 5]: 2.27E+05 CFU/mL and 1.75E+05 CFU/mL | average count of colony forming units for the time period ([2]; time 10 min, cap): 1.57E+05 CFU/mandrel | log of average count for the time period ([2]; time 10 min, cap): 5.20 log | average count of colony forming units for the time period ([2]; time 10 min, side tubes): 3.58E+05 CFU/mandrel | log of average count for the time period ([2]; time 10 min, side tubes): 5.55 log | Average CFU/mL [2, 6]: 3.35E+04 CFU/mL and 4.50E+04 CFU/mL | Average CFU/mandrel [2, 6]: 1.34E+05 CFU/mandrel and 1.80E+05 CFU/mandrel | Log (of Average CFU/mandrel) [2, 6]: 5.13 Log and 5.26 Log | Result #1 CFU/mL [2, 6]: 3.50E+04 CFU/mL and 4.40E+04 CFU/mL | Result #2 CFU/mL [2, 6]: 3.20E+04 CFU/mL and 4.60E+04 CFU/mL | Average CFU/mL [2, 7]: 9.25E+04 CFU/mL and 8.65E+04 CFU/mL | Average CFU/mandrel [2, 7]: 3.70E+05 CFU/mandrel and 3.46E+05 CFU/mandrel | Log (of Average CFU/mandrel) [2, 7]: 5.57 Log and 5.54 Log | Result #2 CFU/mL [2, 7]: 9.70E+04 CFU/mL and 6.70E+04 CFU/mL | Log Red. (Avg) ([2]; time 10 min relative to time zero, cap): 0.51 Log | Log Red. (Avg) ([2]; time 10 min relative to time zero, side tubes): 0.30 Log | average count of colony forming units for the time period ([2]; time 20 min, cap): 8.86E+04 CFU/mandrel | log of average count for the time period ([2]; time 20 min, cap): 4.95 log | average count of colony forming units for the time period ([2]; time 20 min, side tubes): 4.49E+05 CFU/mandrel | log of average count for the time period ([2]; time 20 min, side tubes): 5.65 log | Log (of Average CFU/mandrel) [2, 8]: 4.88 Log and 5.01 Log | Result #1 CFU/mL [2, 8]: 1.93E+04 CFU/mL and 2.82E+04 CFU/mL | Result #2 CFU/mL [2, 8]: 1.86E+04 CFU/mL and 2.25E+04 CFU/mL | Average CFU/mandrel [2, 9]: 5.58E+05 CFU/mandrel and 3.40E+05 CFU/mandrel | Log (of Average CFU/mandrel) [2, 9]: 5.75 Log and 5.53 Log | Log Red. (Avg) ([2]; time 20 min relative to time zero, cap): 0.76 Log | Log Red. (Avg) ([2]; time 20 min relative to time zero, side tubes): 0.20 Log | average count of colony forming units for the time period ([2]; time 30 min, cap): 4.39E+04 CFU/mandrel | log of average count for the time period ([2]; time 30 min, cap): 4.64 log | average count of colony forming units for the time period ([2]; time 30 min, side tubes): 2.49E+05 CFU/mandrel | log of average count for the time period ([2]; time 30 min, side tubes): 5.40 log | Average CFU/mandrel [2, 10]: 5.06E+04 CFU/mandrel and 3.72E+04 CFU/mandrel | Log (of Average CFU/mandrel) [2, 10]: 4.70 Log and 4.57 Log | Result #2 CFU/mL [2, 10]: 1.12E+04 CFU/mL and 1.04E+04 CFU/mL | Average CFU/mL [2, 11]: 6.25E+04 CFU/mL and 6.20E+04 CFU/mL | Average CFU/mandrel [2, 11]: 2.50E+05 CFU/mandrel and 2.48E+05 CFU/mandrel | Log (of Average CFU/mandrel) [2, 11]: 5.40 Log and 5.39 Log | Result #1 CFU/mL [2, 11]: 6.30E+04 CFU/mL and 5.10E+04 CFU/mL | Result #2 CFU/mL [2, 11]: 6.20E+04 CFU/mL and 7.30E+04 CFU/mL | Log Red. (Avg) ([2]; time 30 min relative to time zero, cap): 1.06 Log | Log Red. (Avg) ([2]; time 30 min relative to time zero, side tubes): 0.46 Log | average count of colony forming units for the time period ([2]; time 40 min, cap): 5.21E+03 CFU/mandrel | log of average count for the time period ([2]; time 40 min, cap): 3.72 log | average count of colony forming units for the time period ([2]; time 40 min, side tubes): 1.15E+05 CFU/mandrel | log of average count for the time period ([2]; time 40 min, side tubes): 5.06 log | Average CFU/mL [2, 12]: 2.71E+04 CFU/mL and 3.05E+04 CFU/mL | Average CFU/mandrel [2, 12]: 1.08E+05 CFU/mandrel and 1.22E+05 CFU/mandrel | Log (of Average CFU/mandrel) [2, 12]: 5.04 Log and 5.09 Log | Result #1 CFU/mL [2, 12]: 2.50E+04 CFU/mL and 2.89E+04 CFU/mL | Result #2 CFU/mL [2, 12]: 2.92E+04 CFU/mL and 3.21E+04 CFU/mL | Log Red. (Avg) ([2]; time 40 min relative to time zero, cap): 1.99 Log | Log Red. (Avg) ([2]; time 40 min relative to time zero, side tubes): 0.79 Log
